Literature values as cited in patent US4883862A, “Mercaptosuccinyl glycyl-glycyl-glycine a complex thereof with Tc-99m, and methods of making the same” (Albert Einstein College of Medicine - of Yeshiva University, priority 1988, dated 1989).

[1] = 3 hrs after intravenous administration of 500 uCi

O=C(O)CNC(=O)c1ccccc1[131I] [I-131 OIH, o-[^131 I]iodohippurate]
radiation dose to a normal kidney [1]: 47 mrad
radiation dose to the bladder wall [1]: 1.7 rad
renal absorbed dose (patients with impaired renal function): ≥ 3 rad
